Assay results published in patent US20220227796A1, “EGFR INHIBITORS, COMPOSITIONS AND METHODS THERE OF” (Betta Pharmaceuticals Co., Ltd., priority 2019, published 2022).
Structures can show the parent of a compound that is named as a salt.

What was measured:
H1975(L858R/T790M) = assay: H1975 cells proliferation assay; format: cell-based; settings: Homo sapiens, NCI-H1975; cell proliferation, 72 h, CellTiter Glo; class symbols; read-out: H1975 IC50
Protocol: (§1) Test 3 H1975 and HCC827 Cells Proliferation Assay
(§2) a) The medium was preheated in a 37° C. water bath in advance.
(§3) b) Remove the cryogenic vials from the liquid nitrogen tank, quickly put it into a 37° C. water bath, and completely melt it in 1 min.
(§4) c) Transfer the cell suspension to a 15 mL centrifuge tube containing 8 mL medium, centrifuge 1000 rpm, 5 min.
(§5) d) Discard the supernatant, resuspend the cells in 1 mL medium, and transfer to a 75 cm^2 flask containing 15 mL medium, culture the cells in an incubator at 37° C., 5% CO2.
(§6) b) Collect cell to a 15 mL centrifuged tube, centrifuge at 1000 rpm for 5 min. Discard the supernatant, count, and make the cell density at 1×10^4 cells/mL, then place it in a 37° C., 5% CO2 incubator.
(§7) b) The above compound solution was diluted 1:20 times with culture medium to prepare a 10 fold working solution;
(§8) a) Take cells in log phase growth, centrifuge at 1000 rpm for 5 min, then resuspend the cells with culture medium, then count cells;
(§9) b) Cells were seeded to 96-well cell culture plate with density at 2000 cells/well (suitable for H1975 cell) and at 2500 cells/well (suitable for HCC827 cell);
(§10) The blank control well was a culture medium (0.5% DMSO);
(§11) b) The cells were incubated for an additional 72 h in the incubator.
(§12) a) Remove the 96-well cell culture plate and add 50 μl of CTG reagent (CellTiter Glo kit, promega, Cat #G7573).
(§13) b) Plate was shaked for 2 min and then let it cool for 10 min at room temperature.
(§14) c) The Luminescence signal value was read using a PerkinElmer reader.
(§15) Experimental Data Analysis
(§16) Data were analyzed using GraphPad Prism 6.0 software to obtain a fitted curve of compound activity.
(§17) Y=Bottom+(Top−Bottom)/(1+10^((Log IC50−X)*HillSlope));
(§18) The cells proliferation assay results are expressed with IC50, shown as Table 2.

EGFR Δ19del/T790M/C797S = EGFR Δ19del/T790M/C797S (Homo sapiens, UniProt P00533, T790M/C797S, form not given); assay: Kinase assay (mobility shift) for EGFR Δ19del/T790M/C797S; format: biochemical; settings: read-out: EGFR Δ 19del/T790M/C797S IC50
Sequence of EGFR Δ19del/T790M/C797S (P00533 with tags, fused parts or gaps DEL746-750/T790M/C797S, form open): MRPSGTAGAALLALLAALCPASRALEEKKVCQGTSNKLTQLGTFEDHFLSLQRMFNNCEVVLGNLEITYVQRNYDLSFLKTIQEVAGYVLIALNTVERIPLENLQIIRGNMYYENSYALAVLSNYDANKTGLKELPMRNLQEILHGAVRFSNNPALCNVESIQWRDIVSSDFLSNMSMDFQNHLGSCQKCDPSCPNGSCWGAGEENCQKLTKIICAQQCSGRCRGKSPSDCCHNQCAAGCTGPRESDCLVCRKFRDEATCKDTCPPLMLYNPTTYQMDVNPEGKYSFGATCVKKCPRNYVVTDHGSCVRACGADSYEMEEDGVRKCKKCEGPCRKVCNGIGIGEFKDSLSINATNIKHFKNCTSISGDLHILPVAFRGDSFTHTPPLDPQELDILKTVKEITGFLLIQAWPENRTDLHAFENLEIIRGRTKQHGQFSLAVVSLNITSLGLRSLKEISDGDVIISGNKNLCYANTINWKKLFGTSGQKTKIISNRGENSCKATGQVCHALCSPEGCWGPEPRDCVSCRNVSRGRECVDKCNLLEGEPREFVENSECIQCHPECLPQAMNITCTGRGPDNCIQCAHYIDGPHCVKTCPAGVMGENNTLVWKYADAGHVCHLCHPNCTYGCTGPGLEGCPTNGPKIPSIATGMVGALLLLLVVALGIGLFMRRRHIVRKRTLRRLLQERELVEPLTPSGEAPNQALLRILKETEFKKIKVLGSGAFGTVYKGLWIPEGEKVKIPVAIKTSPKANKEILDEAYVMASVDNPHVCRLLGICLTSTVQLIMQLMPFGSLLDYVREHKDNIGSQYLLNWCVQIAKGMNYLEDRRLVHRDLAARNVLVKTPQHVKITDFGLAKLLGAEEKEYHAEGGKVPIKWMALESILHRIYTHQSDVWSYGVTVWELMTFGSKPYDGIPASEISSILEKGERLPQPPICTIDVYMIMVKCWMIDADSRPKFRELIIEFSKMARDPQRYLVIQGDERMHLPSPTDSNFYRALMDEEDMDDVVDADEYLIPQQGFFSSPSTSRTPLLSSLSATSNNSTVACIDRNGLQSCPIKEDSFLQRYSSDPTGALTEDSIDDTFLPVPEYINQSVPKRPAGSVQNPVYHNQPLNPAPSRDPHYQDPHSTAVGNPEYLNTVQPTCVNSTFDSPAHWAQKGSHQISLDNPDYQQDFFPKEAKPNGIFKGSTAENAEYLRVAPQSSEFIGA
Protocol: (§19) Enzyme reaction protocol are as followed:
(§20) 1. Preparing 1* Kinase buffer as followed.
(§21) 2. Preparing Compound Concentration Gradient: Compounds were tested at a concentration of 300 nM, diluted to 100-fold final concentration in 100% DMSO solution in 96-well plates, and compounds were diluted 3 times with Precision, 10 concentrations. Each concentration of the compound was then further diluted to a 5-fold final concentration of the intermediate dilution solution using 1* Kinase buffer.
(§22) 3. 5 μL of each of the prepared intermediate dilution compounds was separately added to the compound wells of the 384-well plate, and each concentration was tested for duplicate wells; 5 μL of 5% DMSO was added to the negative control wells and the positive control wells, respectively.
(§23) 4. 2.5-fold final concentration of the kinase solution was prepared using 1*Kinase buffer.
(§24) 6. Centrifuge at 1000 rpm for 30 seconds, shake the reaction plate and incubate for 10 minutes at room temperature.
(§25) 8. 10 μL of a 2.5-fold final concentration of a mixed solution of ATP and a substrate was added to initiate the reaction.
(§26) 9. Centrifuge the 384-well plate at 1000 rpm for 30 seconds, mix by shaking, and incubate at room temperature for the corresponding time.
(§27) 10. Add 30 μL of the stop solution to stop the kinase reaction, centrifuge at 1000 rpm for 30 seconds, and mix by shaking.
(§28) 11. Read the conversion rate with Caliper EZ Reader.
(§29) Convert conversion values to inhibition values:
(§30) Percent inhibition=(max−conversion % sample)/(max−min)*100.
(§31) “max” stands for the mean value of the positive control well ratio; “min” stands for the mean value of the negative control well; conversion % sample: sample conversion reading.
(§32) Fit the data in log(inhibitor) vs. response Variable slope of GraphPad Prism 5 to obtain IC50 values.
(§33) Equation used is: Y=Bottom+(Top−Bottom)/(1+(IC50/X)*HillSlope)

HCC827(Δ19del) = assay: HCC827 cells proliferation assay; format: cell-based; settings: Homo sapiens, HCC827; cell proliferation, 72 h, CellTiter Glo; class symbols; read-out: HCC827 IC50
Protocol: as §1, §2, §3, §4, §5, §6, §7, §8, §9, §10, §11, §12, §13, §14, §15, §16, §17, §18

EGFR L858R = EGFR L858R (Homo sapiens, UniProt P00533, L858R); assay: Kinase assay (mobility shift) for EGFR L858R; format: biochemical
Sequence of EGFR L858R (P00533 25-1210 L858R): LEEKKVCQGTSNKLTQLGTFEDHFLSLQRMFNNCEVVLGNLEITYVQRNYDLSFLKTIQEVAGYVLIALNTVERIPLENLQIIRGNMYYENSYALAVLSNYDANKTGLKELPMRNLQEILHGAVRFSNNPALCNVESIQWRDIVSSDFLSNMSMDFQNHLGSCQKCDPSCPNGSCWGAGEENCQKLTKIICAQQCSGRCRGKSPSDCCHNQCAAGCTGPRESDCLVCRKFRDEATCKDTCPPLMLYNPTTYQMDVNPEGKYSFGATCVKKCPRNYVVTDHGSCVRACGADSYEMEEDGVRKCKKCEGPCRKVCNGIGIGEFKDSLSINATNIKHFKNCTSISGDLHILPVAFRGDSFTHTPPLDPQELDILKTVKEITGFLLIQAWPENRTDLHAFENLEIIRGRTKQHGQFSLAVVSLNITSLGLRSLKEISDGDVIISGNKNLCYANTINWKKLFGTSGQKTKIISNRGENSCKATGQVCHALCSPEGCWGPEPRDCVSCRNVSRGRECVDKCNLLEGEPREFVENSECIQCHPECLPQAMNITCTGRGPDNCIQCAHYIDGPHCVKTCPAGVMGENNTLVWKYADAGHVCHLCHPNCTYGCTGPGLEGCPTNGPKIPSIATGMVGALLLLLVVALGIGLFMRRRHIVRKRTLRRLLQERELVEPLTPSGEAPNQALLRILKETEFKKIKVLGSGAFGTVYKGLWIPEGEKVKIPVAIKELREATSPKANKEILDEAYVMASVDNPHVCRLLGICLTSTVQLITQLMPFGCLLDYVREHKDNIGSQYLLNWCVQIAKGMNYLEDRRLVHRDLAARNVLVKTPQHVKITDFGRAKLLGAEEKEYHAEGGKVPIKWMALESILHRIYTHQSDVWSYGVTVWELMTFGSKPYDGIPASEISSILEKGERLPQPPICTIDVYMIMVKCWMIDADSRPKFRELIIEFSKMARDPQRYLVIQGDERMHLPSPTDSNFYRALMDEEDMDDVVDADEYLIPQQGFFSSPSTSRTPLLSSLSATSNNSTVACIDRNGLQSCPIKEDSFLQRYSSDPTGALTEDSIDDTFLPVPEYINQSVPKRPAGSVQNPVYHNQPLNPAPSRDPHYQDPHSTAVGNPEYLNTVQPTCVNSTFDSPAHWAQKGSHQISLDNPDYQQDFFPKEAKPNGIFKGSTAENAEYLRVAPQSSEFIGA
Protocol: as §19, §20, §21, §22, §23, §24, §25, §26, §27, §28, §29, §30, §31, §32, §33

Ba/F3-Δ19del/T790M/C797S = Ba/F3-Δ19del/T790M/C797S (Homo sapiens, UniProt P00533, T790M/C797S, cells depend on it, form not given); assay: Ba/F3-Δ19del/T790M/C797S cells proliferation assay; format: cell-based; settings: cell proliferation, 72 h, CellTiter Glo; class symbols; read-out: BaF3 Δ 19del/T790M/C797S IC50
Sequence of Ba/F3-Δ19del/T790M/C797S (P00533 with tags, fused parts or gaps DEL746-750/T790M/C797S, form open): as the sequence (P00533 with tags, fused parts or gaps DEL746-750/T790M/C797S, form open) above
Protocol: (§34) a) The medium was preheated in a 37 water bath in advance.
as §3
(§35) c) Transfer the cell suspension to a 15 mL centrifuge tube containing 8 mL medium, centrifuge 1000 rpm, 5 min,
as §5
(§36) a) The medium was preheated in a 37° C.; water bath in advance.
as §6, §7, §8
(§37) b) Cells were seeded to 96-well cell culture plate with density at 2000 cells/well;
as §10, §11, §12, §13, §14, §15, §16
(§38) Y=Bottom+(Top−Bottom)/(1+10^((Log IC50−X)*Hill Slope));
as §18

Ba/F3-L858R/T790M/C797S = target: T1, Ba/F3-L858R/T790M/C797S (Homo sapiens, UniProt P00533, T790M/C797S/L858R, cells depend on it); assay: Ba/F3-L858R/T790M/C797S cells proliferation assay; format: cell-based; settings: cell proliferation, 72 h, CellTiter Glo; class symbols; read-out: BaF3 L858R/T790M/C797S IC50
T1 construct: BaF3 L858R/T790M/C797S IC50; other: cell proliferation, 72 h, CellTiter Glo; class symbols; numeric values
T1 sequence (P00533 whole entry T790M/C797S/L858R): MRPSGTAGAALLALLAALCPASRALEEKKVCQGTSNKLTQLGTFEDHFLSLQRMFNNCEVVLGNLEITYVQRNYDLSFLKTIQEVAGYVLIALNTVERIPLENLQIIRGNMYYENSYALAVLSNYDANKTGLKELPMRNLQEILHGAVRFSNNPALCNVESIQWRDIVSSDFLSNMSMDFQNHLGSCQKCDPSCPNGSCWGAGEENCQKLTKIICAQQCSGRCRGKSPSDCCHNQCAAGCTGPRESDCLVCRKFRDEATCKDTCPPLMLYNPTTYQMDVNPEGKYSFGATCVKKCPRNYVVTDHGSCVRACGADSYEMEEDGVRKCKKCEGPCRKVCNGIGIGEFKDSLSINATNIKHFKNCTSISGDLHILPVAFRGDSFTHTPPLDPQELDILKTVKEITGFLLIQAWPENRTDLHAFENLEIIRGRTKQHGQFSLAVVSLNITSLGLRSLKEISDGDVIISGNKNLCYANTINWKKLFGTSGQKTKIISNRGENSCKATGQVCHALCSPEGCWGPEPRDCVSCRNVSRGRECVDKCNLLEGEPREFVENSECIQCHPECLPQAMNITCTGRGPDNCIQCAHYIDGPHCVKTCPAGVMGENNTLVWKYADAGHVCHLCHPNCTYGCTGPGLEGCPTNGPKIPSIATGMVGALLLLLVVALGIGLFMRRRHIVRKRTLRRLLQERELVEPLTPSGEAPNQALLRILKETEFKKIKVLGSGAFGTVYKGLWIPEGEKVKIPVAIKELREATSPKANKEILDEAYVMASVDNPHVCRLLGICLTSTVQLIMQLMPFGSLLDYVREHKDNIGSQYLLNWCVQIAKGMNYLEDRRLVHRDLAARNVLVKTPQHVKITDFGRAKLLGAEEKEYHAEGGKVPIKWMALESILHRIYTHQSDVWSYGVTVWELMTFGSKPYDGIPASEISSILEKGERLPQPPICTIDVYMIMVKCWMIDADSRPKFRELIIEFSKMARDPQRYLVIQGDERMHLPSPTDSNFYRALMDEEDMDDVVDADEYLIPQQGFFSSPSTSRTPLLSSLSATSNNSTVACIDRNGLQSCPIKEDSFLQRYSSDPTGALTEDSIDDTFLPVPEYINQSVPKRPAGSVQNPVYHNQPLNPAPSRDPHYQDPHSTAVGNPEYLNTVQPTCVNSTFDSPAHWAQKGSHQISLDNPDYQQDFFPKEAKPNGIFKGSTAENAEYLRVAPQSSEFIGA
Protocol: as §34, §3, §35, §5, §36, §6, §7, §8, §37, §10, §11, §12, §13, §14, §15, §16, §38, §18

EGFR T790M/L858R = EGFR T790M/L858R (Homo sapiens, UniProt P00533, L858R/T790M); assay: Kinase assay (mobility shift) for EGFR T790M/L858R; format: biochemical
Protocol: as §19, §20, §21, §22, §23, §24, §25, §26, §27, §28, §29, §30, §31, §32, §33

Structure (SMILES)	IC50 (H1975(L858R/T790M)) [nM]	IC50 (EGFR Δ19del/T790M/C797S) [nM]	IC50 (HCC827(Δ19del)) [nM]	IC50 (EGFR L858R) [nM]	GI50 (Ba/F3-Δ19del/T790M/C797S) [nM]	GI50 (Ba/F3-L858R/T790M/C797S) [nM]	IC50 (EGFR T790M/L858R) [nM]
C=C(C)C(=O)Nc1cc(Nc2ncc(Cl)c(Nc3ccccc3P(C)(C)=O)n2)ccc1N1CCC2(CC1)CC(N(C)C)C2 [Compound 7, N-(5-((5-chloro-4-((2-(dimethylphosphoryl)phenyl)amino)pyrimidin-2-yl)amino)-2-(2-(dimethylamino)-7-azaspiro[3.5]nonan-7-yl)phenyl)methacrylamide]		< 10	10 to 50		10 to 50	10 to 50	
CN(C)C/C=C/C(=O)Nc1cc(Nc2ncc(Cl)c(Nc3ccccc3P(C)(C)=O)n2)ccc1N1CCC2(CC1)CC(N(C)C)C2 [Compound 8, (E)-N-(5-((5-chloro-4-((2-(dimethylphosphoryl)phenyl)amino)pyrimidin-2-yl)amino)-2-(2-(dimethylamino)-7-azaspiro[3.5]nonan-7-yl)phenyl)-4-(dimethylamino)but-2-enamide]	10 to 50	< 10	10 to 50		10 to 50	10 to 50	
C=C(F)C(=O)Nc1cc(Nc2ncc(Cl)c(Nc3ccccc3P(C)(C)=O)n2)ccc1N1CCC2(CC1)CC(N(C)C)C2 [Compound 9, N-(5-((5-chloro-4-((2-(dimethylphosphoryl)phenyl)amino)pyrimidin-2-yl)amino)-2-(2-(dimethylamino)-7-azaspiro[3.5]nonan-7-yl)phenyl)-2-fluoroacrylamide]		< 10			10 to 50	10 to 50	
C=CC(=O)Nc1cc(Nc2ncc(Br)c(Nc3ccc4nccnc4c3P(C)(C)=O)n2)ccc1N1CCC(N2CCN(C)CC2)CC1 [Compound 12, N-(5-((5-bromo-4-((5-(dimethylphosphoryl)quinoxalin-6-yl)amino)pyrimidin-2-yl)amino)-2-(4-(4-methylpiperazin-1-yl)piperidin-1-yl)phenyl)acrylamide]	10 to 50		10 to 50		10 to 50	10 to 50	
C=CC(=O)Nc1cc(Nc2ncc(Cl)c(Nc3ccccc3P(C)(C)=O)n2)ccc1N(C)CCN(C)C [Compound 15, N-(5-((5-chloro-4-((2-(dimethylphosphoryl)phenyl)amino)pyrimidin-2-yl)amino)-2-((2-(dimethylamino)ethyl)(methyl)amino)phenyl)acrylamide]	< 10	< 10	< 10	< 10	10 to 50	10 to 50	< 10
C=CC(=O)Nc1cc(Nc2ncc(Br)c(Nc3ccc4nccnc4c3P(C)(C)=O)n2)ccc1N1CCC2(CC1)CC(N(C)C)C2 [Compound 35, N-(5-(5-bromo-4-(5-(dimethylphosphoryl)quinoxalin-6-ylamino)pyrimidin-2-ylamino)-2-(2-(dimethylamino)-7-azaspiro[3.5]nonan-7-yl)phenyl)acrylamide]	< 10	< 10	< 10		< 10	< 10	

The next lines start with the values.

IC50 (H1975(L858R/T790M)) [nM]	IC50 (EGFR Δ19del/T790M/C797S) [nM]	IC50 (HCC827(Δ19del)) [nM]	IC50 (EGFR L858R) [nM]	GI50 (Ba/F3-Δ19del/T790M/C797S) [nM]	GI50 (Ba/F3-L858R/T790M/C797S) [nM]	IC50 (EGFR T790M/L858R) [nM]	Structure (SMILES)
< 10	< 10	< 10	10 to 100	< 10	< 10	< 10	C=CC(=O)Nc1cc(Nc2ncc(Cl)c(Nc3ccccc3P(C)(C)=O)n2)ccc1N1CCC2(CCC(N(C)C)CC2)CC1 [Compound 1, N-(5-((5-chloro-4-((2-(dimethylphosphoryl)phenyl)amino)pyrimidin-2-yl)amino)-2-(9-(dimethylamino)-3-azaspiro[5.5]undecan-3-yl)phenyl)acrylamide]
< 10	< 10	10 to 50		< 10	< 10		C=CC(=O)Nc1cc(Nc2ncc(Cl)c(Nc3ccc4nccnc4c3P(C)(C)=O)n2)ccc1N1CCC2(CC1)CC(N(C)C)C2 [Compound 10, N-(5-((5-chloro-4-((5-(dimethylphosphoryl)quinoxalin-6-yl)amino)pyrimidin-2-yl)amino)-2-(2-(dimethylamino)-7-azaspiro[3.5]nonan-7-yl)phenyl)acrylamide]
10 to 50	< 10	10 to 50		< 10	< 10		C=CC(=O)Nc1cc(Nc2ncc(Cl)c(Nc3ccc4ccccc4c3P(C)(C)=O)n2)ccc1N1CCC2(CC1)CC(N(C)C)C2 [Compound 23, N-(5-((5-chloro-4-((1-(dimethylphosphoryl)naphthalen-2-yl)amino)pyrimidin-2-yl)amino)-2-(2-(dimethylamino)-7-azaspiro[3.5]nonan-7-yl)phenyl)acrylamide hydrochloric acid salt]
10 to 50	< 10	10 to 50		< 10	10 to 50		C=CC(=O)Nc1cc(Nc2ncc(Cl)c(Nc3ccc4ncccc4c3P(C)(C)=O)n2)ccc1N1CCC2(CC1)CC(N(C)C)C2 [Compound 30, N-(5-((5-chloro-4-((5-(dimethylphosphoryl)quinolin-6-yl)amino)pyrimidin-2-yl)amino)-2-(2-(dimethylamino)-7-azaspiro[3.5]nonan-7-yl)phenyl)acrylamide]
< 10	< 10	< 10		< 10	< 10		C=CC(=O)Nc1cc(Nc2ncc(Br)c(Nc3ccc4nccnc4c3P(C)(C)=O)n2)ccc1N(C)CCN(C)C [Compound 34, N-(5-(5-bromo-4-(5-(dimethylphosphoryl)quinoxalin-6-ylamino)pyrimidin-2-ylamino)-2-((2-(dimethylamino)ethyl)(methyl)amino)phenyl)acrylamide]
